Measured values reported in PMC4164784, “4E-BPs require non-canonical 4E-binding motifs and a lateral surface of eIF4E to repress translation” (Nature Communications, 2014).
No end group written: not given here.

Tests used:
[1] = test system: endogenous eIF4E and HA-tagged 4E-BPs in S2 cells; test: Immunofluorescence localization in S2 cells; type: cell-based, Drosophila melanogaster; details: −LMB; for localization of endogenous eIF4E (in words): S2 cells overexpressing 4E-BP or mutant; for localization of the 4E-BP (in words): S2 cells, steady-state
[2] = biological target: T1, eIF4E–eIF4G complex (eIF4E WT; eIF4G residues 578–650) (Drosophila melanogaster, UniProt P48598); test: Competition assay, displacement of GST-eIF4G from preassembled eIF4E (WT)–eIF4G complexes; type: biochemical; details: for displacement of eIF4G from eIF4E WT–eIF4G complex (in words): 2–20 μM GB1-fused competitor, Strep-Tactin pull down; for competition with eIF4G for eIF4E WT (in words): Fig. 5a,c, fivefold molar excess of MBP-tagged competitor, 30 min at 4 °C, m7GTP or Strep-Tactin pull down
T1 construct: full-length eIF4E (WT or the II-AA mutant) containing an N-terminal SNH-tag was coexpressed; made in house; host or cells: E. coli BL21 Star (DE3), coexpression
T1 sequence (P48598 1-248 isoform P48598-2): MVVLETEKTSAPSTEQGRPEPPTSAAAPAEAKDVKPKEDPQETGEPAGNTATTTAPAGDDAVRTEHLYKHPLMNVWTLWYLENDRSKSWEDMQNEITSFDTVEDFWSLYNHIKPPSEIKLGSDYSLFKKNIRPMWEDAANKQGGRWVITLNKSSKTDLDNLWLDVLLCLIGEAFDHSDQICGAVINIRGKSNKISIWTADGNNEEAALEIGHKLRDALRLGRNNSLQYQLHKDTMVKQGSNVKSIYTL
Protocol: For the competition assays shown in Figs 5a,c and 6a,b, complexes containing SHN- or MBP-tagged eIF4E (WT or II-AA mutant) bound to GST-eIF4G (residues 578–650), GST-Thor (full length), GST-4E-T (residues 1–58) or GST-CUP (311–440) were obtained by coexpressing the corresponding proteins in E. coli BL21 (DE3) STAR cells (30 ml culture). The cells were resuspended in lysis buffer (5 ml) that was supplemented with EDTA-free protease inhibitor (Roche) and 1 mg ml^−1 lysozyme and lysed by sonication. The cleared lysates were incubated with 400 μl of Protino Glutathione Agarose 4B (Macherey-Nagel) for 1 h. The beads were washed three times with lysis buffer, and the proteins were eluted after 10 min of incubation with lysis buffer containing 25 mM L-glutathione. The protein complexes were stored at −20 °C or used in competition assays.
The purified recombinant complexes were mixed with excess amounts of the indicated purified competitor proteins (Fig. 5c) or with bacterial lysates expressing the competitor proteins (Figs 5a and 6) and incubated for 30 min at 4 °C. After incubation, 20 μl of immobilized γ-Aminophenyl-m^7GTP or Strep-Tactin Sepharose (IBA), were added to the samples and incubated for another 40 min at 4 °C. The beads were washed three times with lysis buffer and eluted with lysis buffer containing 2.5 mM desthiobiotin (Strep-Tactin Sepharose) or with 20 μl of SDS–PAGE loading buffer (Aminophenyl-m^7GTP beads). The proteins were analyzed by 10–15% SDS–PAGE followed by staining with Coomassie blue staining. […]

[3] = test system: endogenous eIF4E; test: Coimmunoprecipitation / m7GTP pull-down with endogenous eIF4E in S2 cell lysates; type: cell-based, Drosophila melanogaster; details: western blot
In short: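 S2 cell lysates expressing HA-tagged 4E-BPs (CUP, Thor, 4E-T), eIF4G or mutants, immunoprecipitated with anti-eIF4E or anti-HA antibodies, or pulled down with m7GTP beads for 1 h at 4 °C. Washes in NET buffer (50 mM Tris pH 7.4, 150 mM NaCl, 1 mM EDTA, 0.1% Triton X-100). Bound proteins detected by anti-HA/anti-eIF4E western blot; pre-immune serum and HA-MBP as negative controls.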

[4] = Fig. 4, 2 μM complex, 20 min at 4 °C, n=2

| Substance | localization of endogenous eIF4E (in words) [1] | localization of the 4E-BP (in words) [1] | displacement of eIF4G from eIF4E WT–eIF4G complex (in words) [2, 4] | interaction with endogenous eIF4E (in words) [3] | molar excess at which eIF4G was effectively displaced ([2]; Fig. 4, 2 μM complex, GB1-fused C+NC competitor, 20 min at 4 °C, n=2) | competition with eIF4G for eIF4E WT (in words) [2] |
| --- | --- | --- | --- | --- | --- | --- |
| 4E-T C+NC: 4E-T residues 9–44, eIF4E-binding region short, C-terminal GB1 | the number of eIF4E-positive P-bodies was reduced | still localized to P-bodies | displaced eIF4G from the complex and associated with eIF4E |  |  |  |
| 4E-T C: 4E-T residues 9–21, canonical motif | the number of eIF4E-positive P-bodies was reduced | still localized to P-bodies |  | drastic reduction |  |  |
| CUP C+NC: CUP residues 325–376, eIF4E-binding region short, C-terminal GB1 (KSYTRSRLMDIRNGMFNALMHRSKESFVMPRIATCDDIELEGRLRRMNIWRT-GB1; UniProt Q9VMA3 325-376, looked up, fragment) |  |  | displaced eIF4G from the complex and associated with eIF4E |  | two | efficiently displaced preassembled eIF4G |
| Thor C+NC: Thor residues 50–83, eIF4E-binding region short, C-terminal GB1 (TKLIYERAFMKNLRGSPLSQTPPSNVPSCLLRGT-GB1; UniProt Q9XZ56 50-83, looked up, fragment) |  |  | displaced eIF4G from the complex and associated with eIF4E |  |  |  |
| Thor C: Thor residues 50–63, canonical motif |  |  |  | disrupted the interaction with eIF4E |  | abolished competition |
